Literature values, collected in paper PMC8781256, “The Influence of Fed State Lipolysis Inhibition on the Intraluminal Behaviour and Absorption of Fenofibrate from a Lipid-Based Formulation” (Pharmaceutics, 2022).

Legend:
[1] = test system: human gastric lipase (HGL); design: method as in PMID 11408251; settings: after intake of solid and liquid meals
[2] = test system: human pancreatic lipase (HPL); design: method as in PMID 11408251; settings: after intake of solid and liquid meals
[3] = design: method as in PMID 8626884; settings: acts locally in the GI tract

| log P | SMILES | HGL enzyme inhibition [1] | HPL enzyme inhibition [2] | systemic uptake [3] |
| --- | --- | --- | --- | --- |
| 5.21 | CC(C)OC(=O)C(C)(C)Oc1ccc(C(=O)c2ccc(Cl)cc2)cc1 [fenofibrate] |  |  |  |
|  | CCCCCCCCCCC[C@@H](C[C@@H]1OC(=O)[C@H]1CCCCCC)OC(=O)[C@H](CC(C)C)NC=O [orlistat, tetrahydrolipstatin] | 46.6–91.4% | 51.2–82.6% | negligible |
